Experimental data published in US7317028B2, “Cell differentiation inducer” (Schering Aktiengesellschaft, priority 1996, dated 2008).

Tests used:
A2780 cells = assay: Test for induction of differentiation in A2780 cells (ALP activity, ALPmin); assay type: cell-based, human; settings: Homo sapiens, 72 h; A2780 cells, 3 days incubation; minimum concentration of the drug inducing increase of ALP activity
Experimental: Increase of alkaline phosphatase (ALP) activity is known as an indicator for differentiation of human colon cancer cells. […] Thus, differentiation inducing action was evaluated using ALP activity as an indicator.
To each well of a 96-well plate was placed 0.1 mL of A2780 cells (15,000 cells/well) and the next day was added 0.1 mL of a sequential dilute of test solution with the medium. […] The reaction was quenched with 0.05 mL/well of 3N sodium hydroxide aq. For each well, an absorbance at 405 nm was measured to determine the minimum concentration of the drug inducing increase of ALP activity (ALPmin).

Row | melting point | SMILES | minimal effective concentration (A2780 cells) [µM]
1 | 186 to 190 °C (dec.) | Cc1ccc(C(=O)NCc2ccc(C(=O)Nc3ccccc3N)cc2)cn1 [Example 16, N-(2-aminophenyl)-4-[N-(6-methylnicotinoyl)aminomethyl]benzamide] | 3
2 | 199 to 201 °C | Nc1ccccc1NC(=O)c1ccc(CNC(=O)COc2cncc(Cl)c2)cc1 [Example 32, N-(2-aminophenyl)-4-[N-(5-chloropyridin-3-yl)oxyacetylaminomethyl]benzamide] | 3
3 | 239 to 241 °C (dec.) | Nc1ccccc1NC(=O)c1ccc(C(=O)NCc2ccccc2)cc1 [Example 132, N-(2-aminophenyl)-4-(N-benzylamino)carbonylbenzamide] | 10
4 | 139 to 141 °C | Nc1ccccc1NC(=O)c1ccc(COC(=O)NCc2cccnc2)cc1 [Example 98, N-(2-aminophenyl)-4-[(pyridin-3-yl)methylaminocarbonyloxymethyl]benzamide] | 0.1
5 | 120 to 125 °C | Nc1ccccc1NC(=O)c1ccc(CNC(=O)OCCc2cccnc2)cc1 [Example 54, N-(2-aminophenyl)-4-[N-[2-(pyridin-3-yl)ethoxycarbonyl]aminomethyl]benzamide] | 1
6 | 169 to 170 °C | COc1cncc(COC(=O)NCc2ccc(C(=O)Nc3ccccc3N)cc2)c1 [Example 76, N-(2-aminophenyl)-4-[N-(5-methoxypyridin-3-yl)methoxycarbonylaminomethyl]benzamide] | 1
7 | 230 °C (dec.) | Nc1ccccc1NC(=O)c1ccc(-n2cc(COc3cccc([N+](=O)[O-])c3)oc2=O)cc1 [Example 141, N-(2-aminophenyl)-4-[5-(3-nitrophenoxy)methyl-1,3-oxazolin-2-on-3-yl]benzamide] | 1
8 | 186 to 189 °C | Nc1ccccc1NC(=O)c1ccc(NC(=O)COCc2ccsc2)cc1 [Example 124, N-(2-aminophenyl)-4-[N-(thiophen-3-yl)methoxyacetylamino]benzamide] | 3
9 | 216 to 220 °C (dec.) | Nc1ccccc1NC(=O)c1ccc(CNC(=O)c2ccc[nH]2)cc1 [Example 23, N-(2-aminophenyl)-4-[N-(pyrrol-2-yl)carbonylaminomethyl]benzamide] | 1
10 | 175 to 179 °C | Nc1ccccc1NC(=O)c1ccc(NC(=O)COc2cccnc2)cc1 [Example 120, N-(2-aminophenyl)-4-[N-(pyridin-3-yl)oxyacetylamino]benzamide] | 0.3
11 | 175 to 176 °C | COc1ccc(O)c(NC(=O)c2ccc(CNC(=O)OCc3cccnc3)cc2)c1 [Example 85, N-(2-hydroxy-5-methoxyphenyl)-4-[N-(pyridin-3-yl)methoxycarbonylaminomethyl]benzamide] | 3
12 | 127 °C | Nc1ccccc1NC(=O)c1ccc(CNC(=O)Cc2cccnc2)cc1 [Example 29, N-(2-aminophenyl)-4-[N-(pyridin-3-yl)acetylaminomethyl]benzamide] | 10
13 | 207 °C (dec.) | Nc1ccccc1NC(=O)c1ccc(CNC(=O)c2cnccn2)cc1 [Example 20, N-(2-aminophenyl)-4-[N-(pyrazin-2-yl)carbonylaminomethyl]benzamide] | –
14 | 173 to 178 °C (dec.) | Nc1ccccc1NC(=O)c1ccc(CNC(=O)c2ccccn2)cc1 [Example 12, N-(2-aminophenyl)-4-(N-picolinoylaminomethyl)benzamide] | –
15 | 193 to 196 °C | CC(Oc1cccnc1)C(=O)Nc1ccc(C(=O)Nc2ccccc2N)cc1 (stereo not drawn) [Example 129, N-(2-aminophenyl)-4-[N-[2-(pyridin-3-yl)oxypropionyl]amino]benzamide] | 1
16 | 155 to 155.5 °C | Cc1ccc(O)c(NC(=O)c2ccc(CNC(=O)OCc3cccnc3)cc2)c1 [Example 84, N-(2-hydroxy-5-methylphenyl)-4-[N-(pyridin-3-yl)methoxycarbonylaminomethyl]benzamide] | –
17 | 168 to 175 °C | Nc1ccccc1NC(=O)c1ccc(CNC(=O)OCc2cncs2)cc1 [Example 63, N-(2-aminophenyl)-4-[N-(thiazol-5-yl)methoxycarbonylaminomethyl]benzamide] | 3
18 | 140 °C | CN(C)c1ccc(CC(=O)Nc2ccc(C(=O)Nc3ccccc3N)cc2)cc1 [Example 108, N-(2-aminophenyl)-4-[[4-(N,N-dimethylamino)phenylacetyl]amino]benzamide] | 3
19 | 180 to 183 °C | Nc1ccccc1NC(=O)c1ccc(CNC(=O)OCc2ccncc2)cc1 [Example 60, N-(2-aminophenyl)-4-[N-(pyridin-4-yl)methoxycarbonylaminomethyl]benzamide] | 3
20 | 171 to 173 °C (dec.) | CC(Oc1cccnc1)C(=O)NCc1ccc(C(=O)Nc2ccccc2N)cc1 (stereo not drawn) [Example 47, N-(2-aminophenyl)-4-[N-[2-(pyridin-3-yl)oxy]propionylaminomethyl]benzamide] | –
21 | 197 °C (dec.) | Nc1ccccc1NC(=O)c1ccc(CNC(=O)c2ccco2)cc1 [Example 22, N-(2-aminophenyl)-4-[N-(furan-2-yl)carbonylaminomethyl]benzamide] | –
22 | 230 °C | Nc1ccccc1NC(=O)c1ccc(CNc2c(NCc3cccnc3)c(=O)c2=O)cc1 [Example 144, N-(2-aminophenyl)-4-[N-[3-[(pyridin-3-yl)methylamino]cyclobuten-1,2-dion-4-yl]aminomethyl]benzamide] | –
23 | 173 to 174 °C | Nc1ccccc1NC(=O)Cc1cc2cc(NC(=O)OCc3cccnc3)ccc2o1 [Example 87, N-(2-aminophenyl)-5-[(pyridin-3-yl)methoxycarbonyl]aminobenzofuran-2-carboxyamide] | –
24 | 234 to 237 °C (dec.) | Nc1ccccc1NC(=O)c1ccc(CNC(=O)c2ccncc2)cc1 [Example 19, N-(2-aminophenyl)-4-(N-isonicotinoylaminomethyl)benzamide] | –
25 | 165 to 167 °C (dec.) | Nc1ccccc1NC(=O)c1ccc(NC(=O)CCCc2cccnc2)cc1 [Example 118, N-(2-aminophenyl)-4-[[4-(pyridin-3-yl)butanoyl]amino]benzamide] | –
26 | 202 to 205 °C (dec.) | Nc1ccccc1NC(=O)c1ccc(CNC(=O)c2cccs2)cc1 [Example 21, N-(2-aminophenyl)-4-[N-(thiophen-2-yl)carbonylaminomethyl]benzamide] | –
27 | 209 °C (dec.) | Nc1ccccc1NC(=O)c1ccc(CNC(=O)Oc2cccnc2)cc1 | –
28 | 193 to 196 °C | Nc1ccccc1NC(=O)c1ccc(CNC(=O)c2cccnc2)cc1 [Example 14, N-(2-aminophenyl)-4-(N-nicotinoylaminomethyl)benzamide] | –
29 | 192 to 195 °C | Nc1ccccc1NC(=O)c1ccc(CNC(=O)OCC2=CN(c3ccccc3)CO2)cc1 [Example 62, N-(2-aminophenyl)-4-[N-(3-phenyloxazol-5-yl)methoxycarbonylaminomethyl]benzamide] | –
